Measured values: patent US11542249B2, “BTK inhibitor compounds” (Eli Lilly and Company, priority 2017, dated 2023)

Key:
human BTK = human BTK (Homo sapiens (Human), UniProt Q06187); assay: BTK LANTHASCREEN Eu Kinase Binding Assay; conditions: IC50 value ± standard deviation; full-length His-labeled BTK, kinase tracer 236; read-out: hBTK Rel IC50
Procedure: (§1) BTK and EGFR in Vitro Assays:
(§2) The BTK and EGFR biochemical assays utilize LANTHASCREEN® Eu Kinase Binding Assays from Thermo Fisher Scientific, measuring the binding of the kinase with a […] tracer. The assay buffer consists of 50 mM HEPES pH 7.5, 0.01% BRU™-35, 10 mM MgCl2, 1 mM EGTA, and 1 mM DTT. The test compounds are diluted and added to the assay plate with a Labcyte ECHO® 555 liquid handler. The compounds are tested in 10 point dose response curves (100 μM-0.005 μM) with a maximum DMSO concentration of 1%. The assays are performed in 20 μL in low-volume 384-well white proxiplates. For the BTK assay, the concentration of full-length His-labeled BTK in the assay is 5 nM, the Eu-anti-His antibody is 2 nM, and the kinase tracer 236 is 60 nM. For the EGFR assay, the concentration of truncated (amino acids 668-1210) GST-labeled EGFR is 5 nM, the Eu-anti-GST antibody is 2 nM, and the kinase tracer 199 is 10 nM. The components of the assay (compound, enzyme/antibody, tracer) are assembled and incubated for 30 min prior to being read on a Perkin-Elmer EnVision with excitation at 340 nm, tracer emission at 665 nm, and antibody emission at 615 nm. The signal ratio is converted to percent inhibition using the following equation: % Inhibition=100−[(Test Compound−Median Minimum)/(Median Maximum−Median Minimum)×100].
(§3) The following Table 1 and Table 2 describes the relative IC50 data vs. human BTK, human EGFR, and human whole blood CD69.

human EGFR = human EGFR (Homo sapiens (Human), UniProt P00533); assay: EGFR LANTHASCREEN Eu Kinase Binding Assay; conditions: IC50 value ± standard deviation; truncated GST-labeled EGFR, kinase tracer 199; read-out: hEGFR Rel IC50
Procedure: as §1, §2

[1] = system: activated B cells in human whole blood (CD69); assay: Human Whole Blood CD69 in vitro assay (B cell activation, flow cytometry); type: cell-based; conditions: IC50 value ± standard deviation, anti-human-IgD-Dextran stimulation, read-out: HWB CD69 Rel IC50
Procedure: Human Whole Blood CD69 in Vitro Assay:
The HWB CD69 assay measures activated B cells in human whole blood using a flow cytometer. Compounds are diluted and added to assay plates with a Labcyte ECHO® 555 liquid handler. Compounds are tested in 10 point dose response curves (20 μM-0.001 μM) in 96-well v-bottom plates with a maximum DMSO concentration of 0.2%. Fresh blood from individual healthy volunteer is mixed with HEPES (0.5 ml HEPES added per 10 ml blood) and 100 μl/well is added to compound plates. The plates are sealed and incubated in a 37° C. incubator for 3 h. Anti-human-IgD-Dextran is added to each well to give a final concentration of 100 ng/ml, mixed, and put back into the incubator. After 1 h, the cells are washed with cold FACS buffer and transferred to a deep well plate. The cells are incubated with anti-human CD69-PE (BIOLEGEND®, clone FN50) and anti-human CD19-APC (BIOLEGEND®, clone HIB19) antibodies on ice for 20 min. The cells are washed and incubated in eBioscience™ 1-step Fix/Lyse solution (10×) at RT to lyse the red blood cells and fix the other cells. The white cells are pelleted and washed in FACS buffer and then brought up in read buffer. The suspended cells are transferred to 96-well round bottom plates and read on an IntelliCyt iQue® Screener Plus flow cytometer. From the SSC (Side Scatter Channel) vs FSC (Forward Scatter Channel) graph, the lymphocytes are identified. Lymphocytes are identified with gated on positive CD19 marker for quantify CD69 (a marker of activated B lymphocytes) MFI (mean fluorescent intensity/cell). The signal ratio is converted to percent inhibition using the following equation: % Inhibition=100−[(Test Compound−Median Min)/(Median Max−Median Min)×100].
as §3

Rat Oral Bioavailability = type: in vivo, Sprague-Dawley rats; conditions: Sprague-Dawley, plasma, PO 3 mg/kg vs IV 1 mg/kg, read-out: Rat Oral Bioavailability (% F)
Procedure: The test compound is administered to Sprague-Dawley rats intravenously (IV) at 1 mg/kg (using vehicles of either: 20% CAPTISOL® in 25 mM sodium phosphate buffer, pH2 quantum satis; or 25% DMA, 15% EtOH, 10% propylene glycol, 25% 2-pyrrolidone, and 25% purified water) and orally (PO) at 3 mg/kg (using a vehicle of 1% hydroxyethyl cellulose, 0.25% polysorbate 80, 0.05% Antifoam 1510-US, and purified water quantum satis). Serial blood samples are collected at 0.08, 0.25, 0.5, 1, 2, 4, 8, and 12 h post dose for IV bolus and at 0.25, 0.5, 1, 2, 4, 8, and 12 h post dose after oral administration. After treatment with an EDTA […], plasma is obtained by centrifugation and stored at −70° C. until analysis by LC-MS/MS. Test article concentration is determined in plasma and uploaded into the Watson LIMS™ system where noncompartmental analysis is used to calculate Area Under the Curve (AUC) for both IV and PO arms. Bioavailability (% F) is calculated via the following equation, %F=(AUCPO×DoseIV)/(AUCIV×DosePO)×100. Table 3 indicates the rat oral bioavailability of select BTK inhibitors.

Chain of human BTK (Q06187 whole entry): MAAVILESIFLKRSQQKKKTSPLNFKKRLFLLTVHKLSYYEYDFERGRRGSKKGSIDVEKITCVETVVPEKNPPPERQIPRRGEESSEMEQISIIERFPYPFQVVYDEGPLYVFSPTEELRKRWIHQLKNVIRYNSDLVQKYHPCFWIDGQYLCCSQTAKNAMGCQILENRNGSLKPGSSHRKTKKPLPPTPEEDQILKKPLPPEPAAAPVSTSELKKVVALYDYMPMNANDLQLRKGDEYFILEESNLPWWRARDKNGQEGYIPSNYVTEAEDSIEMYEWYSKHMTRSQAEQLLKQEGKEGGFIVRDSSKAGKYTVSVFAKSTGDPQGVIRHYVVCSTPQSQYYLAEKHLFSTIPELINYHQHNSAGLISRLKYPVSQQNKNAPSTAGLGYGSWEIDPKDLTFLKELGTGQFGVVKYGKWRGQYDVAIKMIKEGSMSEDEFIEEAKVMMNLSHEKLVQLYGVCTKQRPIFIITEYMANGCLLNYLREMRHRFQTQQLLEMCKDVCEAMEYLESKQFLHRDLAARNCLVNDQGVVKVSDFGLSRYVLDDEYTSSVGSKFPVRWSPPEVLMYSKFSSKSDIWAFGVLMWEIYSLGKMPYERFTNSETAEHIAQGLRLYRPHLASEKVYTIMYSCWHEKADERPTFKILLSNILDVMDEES
Chain of human EGFR (P00533 668-1210): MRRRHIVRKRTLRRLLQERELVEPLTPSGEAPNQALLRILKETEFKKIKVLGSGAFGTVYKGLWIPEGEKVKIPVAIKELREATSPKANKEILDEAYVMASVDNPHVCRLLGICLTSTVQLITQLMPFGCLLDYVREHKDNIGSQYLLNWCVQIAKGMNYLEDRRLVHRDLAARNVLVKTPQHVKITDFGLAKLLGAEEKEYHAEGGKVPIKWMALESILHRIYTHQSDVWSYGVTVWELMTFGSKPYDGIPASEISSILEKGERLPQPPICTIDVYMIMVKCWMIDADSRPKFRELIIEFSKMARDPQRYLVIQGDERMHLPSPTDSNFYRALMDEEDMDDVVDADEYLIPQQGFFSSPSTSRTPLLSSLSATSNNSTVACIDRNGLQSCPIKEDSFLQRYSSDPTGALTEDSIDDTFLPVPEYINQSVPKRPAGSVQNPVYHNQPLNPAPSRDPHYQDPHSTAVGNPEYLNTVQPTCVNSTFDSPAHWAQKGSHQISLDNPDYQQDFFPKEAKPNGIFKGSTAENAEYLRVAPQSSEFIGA

Row | SMILES | IC50 (human BTK) | IC50 (human EGFR) | IC50 [1] | bioavailability (Rat Oral Bioavailability)
1 | C=CC(=O)N1CCC(Nc2cncc(-c3cnc(Nc4cccc(Cl)c4)nc3)c2)CC1 [Example 19, 1-[4-[[5-[2-(3-chloroanilino)pyrimidin-5-yl]-3-pyridyl]amino]-1-piperidyl]prop-2-en-1-one] | < 5 nM | 523 ± 112 nM | 148 ± 33.1 nM | 79.2%
2 | C=CC(=O)N1CC(C)(Nc2cncc(-c3cnc(Oc4cccc(Cl)c4)nc3)n2)C1 [Example 29, 1-[3-[[6-[2-(3-chlorophenoxy)pyrimidin-5-yl]pyrazin-2-yl]amino]-3-methyl-azetidin-1-yl]prop-2-en-1-one] | 17.7 ± 1.35 nM | 3470 ± 911 nM | 584 ± 372 nM | –
3 | C=CC(=O)N1CC(Nc2cncc(-c3cnc(Oc4cc(F)cc(F)c4)nc3)n2)C1 [Example 30, 1-[3-[[6-[2-(3,5-difluorophenoxy)pyrimidin-5-yl]pyrazin-2-yl]amino]azetidin-1-yl]prop-2-en-1-one] | 43.2 ± 11.9 nM | 1080 ± 229 nM | 815 ± 110 nM | –
4 | C=CC(=O)N1CC[C@H](Nc2cncc(-c3cnc(Nc4cccc(Cl)c4)nc3)n2)C1 [Example 34, 1-[(3S)-3-[[6-[2-(3-chloroanilino)pyrimidin-5-yl]pyrazin-2-yl]amino]pyrrolidin-1-yl]prop-2-en-1-one] | 18.3 nM | 639 ± 256 nM | 130 ± 44.7 nM | –
5 | C=CC(=O)N1CC(Nc2cncc(-c3cnc(Nc4ccc(F)c(Cl)c4)nc3)n2)C1 [Example 35, 1-[3-[[6-[2-(3-chloro-4-fluoro-anilino)pyrimidin-5-yl]pyrazin-2-yl]amino]azetidin-1-yl]prop-2-en-1-one] | < 5 nM | 37.3 ± 26.1 nM | 107 ± 45.4 nM | –
6 | C=CC(=O)N1CC[C@H](Nc2cncc(-c3cnc(Nc4ccccc4OC(F)(F)F)nc3)n2)C1 [Example 36, 1-[(3S)-3-[[6-[2-[2-(trifluoromethoxy)anilino]pyrimidin-5-yl]pyrazin-2-yl]amino]pyrrolidin-1-yl]prop-2-en-1-one] | 6.72 ± 1.7 nM | 15200 ± 654 nM | 161 ± 71 nM | –
7 | C=CC(=O)N1CC(Nc2cncc(-c3cnc(Nc4cccc(OC(F)(F)F)c4)nc3)n2)C1 [Example 37, 1-[3-[[6-[2-[3-(trifluoromethoxy)anilino]pyrimidin-5-yl]pyrazin-2-yl]amino]azetidin-1-yl]prop-2-en-1-one] | < 5 nM | 306 ± 33.8 nM | 136 ± 66.8 nM | –
8 | C=CC(=O)N1CCC(Nc2cncc(-c3cnc(Oc4cccc(OC(F)F)c4)nc3)n2)CC1 [Example 38, 1-[4-[[6-[2-[3-(difluoromethoxy)phenoxy]pyrimidin-5-yl]pyrazin-2-yl]amino]-1-piperidyl]prop-2-en-1-one] | 6.89 ± 0.835 nM | 908 ± 546 nM | 66.6 ± 19.9 nM | –
9 | C=CC(=O)N1CC[C@H](Nc2cncc(-c3cnc(Nc4cccc(OC(F)F)c4)nc3)n2)C1 [Example 39, 1-[(3S)-3-[[6-[2-[3-(difluoromethoxy)anilino]pyrimidin-5-yl]pyrazin-2-yl]amino]pyrrolidin-1-yl]prop-2-en-1-one] | 5.6 nM | 1460 ± 200 nM | 103 ± 60.6 nM | –
10 | C=CC(=O)N1CC(Nc2cncc(-c3cnc(Nc4cccc(C)n4)nc3)n2)C1 [Example 40, 1-[3-[[6-[2-[(6-methyl-2-pyridyl)amino]pyrimidin-5-yl]pyrazin-2-yl]amino]azetidin-1-yl]prop-2-en-1-one] | 5.58 ± 0.182 nM | 54.9 ± 15.4 nM | 144 ± 53.4 nM | –
11 | C=CC(=O)N1CC(Nc2cncc(-c3cnc(Oc4ccc(Cl)cc4)nc3)n2)C1 [Example 41, 1-[3-[[6-[2-(4-chlorophenoxy)pyrimidin-5-yl]pyrazin-2-yl]amino]azetidin-1-yl]prop-2-en-1-one] | 96.8 ± 15.6 nM | 2110 ± 487 nM | 2160 ± 420 nM | –
12 | C=CC(=O)N1CC(Nc2cncc(-c3cnc(Oc4cccc(OC)c4)nc3)n2)C1 [Example 42, 1-[3-[[6-[2-(3-methoxyphenoxy)pyrimidin-5-yl]pyrazin-2-yl]amino]azetidin-1-yl]prop-2-en-1-one] | 19.4 ± 1.67 nM | 2820 ± 492 nM | 226 ± 53 nM | –
13 | C=CC(=O)N1CC(Nc2cncc(-c3cnc(Nc4ccccc4OC(F)(F)F)nc3)n2)C1 [Example 43, 1-[3-[[6-[2-[2-(trifluoromethoxy)anilino]pyrimidin-5-yl]pyrazin-2-yl]amino]azetidin-1-yl]prop-2-en-1-one] | < 5 nM | 676 ± 23 nM | 105 ± 43 nM | –
14 | C=CC(=O)N1CCC(Nc2cncc(-c3cnc(Oc4cccc(Cl)c4)nc3)n2)CC1 [Example 44, 1-[4-[[6-[2-(3-chlorophenoxy)pyrimidin-5-yl]pyrazin-2-yl]amino]-1-piperidyl]prop-2-en-1-one] | 6.11 nM | 207 ± 31.9 nM | 126 ± 29.7 nM | 36.8%
15 | CN(C)C/C=C/C(=O)N1CCC(Nc2cncc(-c3cnc(Oc4cccc(Cl)c4)nc3)n2)CC1 [Example 45, (E)-1-[4-[[6-[2-(3-chlorophenoxy)pyrimidin-5-yl]pyrazin-2-yl]amino]-1-piperidyl]-4-(dimethylamino)but-2-en-1-one] | 43.8 ± 4.17 nM | 52600 ± 28800 nM | 466 ± 159 nM | –
16 | CN(C)C/C=C/C(=O)N1CCC(Nc2cncc(-c3cnc(Nc4cccc(Cl)c4)nc3)n2)CC1 [Example 46, (E)-1-[4-[[6-[2-(3-chloroanilino)pyrimidin-5-yl]pyrazin-2-yl]amino]-1-piperidyl]-4-(dimethylamino)but-2-en-1-one] | < 5 nM | 6040 ± 2090 nM | 157 ± 52.3 nM | –
17 | C=CC(=O)N1CCC(Nc2cncc(-c3cnc(Nc4cccc(Cl)c4)nc3)c2)CC1C (centres unmarked) [Example 47, 1-[4-[[5-[2-(3-chloroanilino)pyrimidin-5-yl]-3-pyridyl]amino]-2-methyl-1-piperidyl]prop-2-en-1-one] | 6.7 nM | 6100 nM | 355 ± 39 nM | –
